Assay results taken from US20230416307A1, “[…] PEPTIDES FOR ENHANCING VIRAL PRODUCTION” (Synvivia, Inc., priority 2022, published 2023).

System: AAV6
Test: Single-site amino acid substitution scanning of CPs by enrichment score in AAV6
Assay type: cell-based, adeno-associated virus
Details: FIG. 29, relative to original CP
Description: This plot visually depicts the functional impact of mutations on a particular cyclic peptide as measured by enrichment score. The heatmap provides valuable insights into the mutational landscape of cyclic peptides, highlighting positions where certain amino acid substitutions are either not tolerated (e.g., resulting in depletion), are neutral (e.g., resulting in similar enrichment scores), or are favored (e.g., resulting in higher enrichment, indicating enhanced cyclic peptide variants).
The heatmap is structured with rows indicating the position of the original amino acid, while the columns represent the position of the mutated amino acid (for a given row). The X-axis corresponds to the 20 natural amino acid substitutions for a given cyclic peptide residue index. The Y axis represents the amino acids present in a specific cyclic peptide, starting from the top with the “scar” residue from the peptide cyclization splicing reaction of DNA expressed cyclic peptides. The scar residue is typically amino acids containing a nucleophilic side chain like cysteine, serine, or threonine. Each row is labeled by the native amino acid of a given CP with amino acid positions going from top to bottom (e.g. index 1 is at the top, followed by index 2 followed by, index 3, etc. . . . ). The final amino acid at the bottom cyclizes with the scar residue at top. […]

In the case of “Ser2Pro: CSSLT with serine in residue index 2 substituted with proline (CPSLT; cyclic; Cyclic peptide that was found to enhance AAV TU:VG ratio and lentiviral titer.)”, the “enrichment factor of single-site substitution variant” value is reported as “substantially increased enrichment factors”.
